Reference: ChEMBL document CHEMBL3600349 (Bioorg Med Chem Lett, 2015)

Tests used:
[1] = target: Voltage-gated inwardly rectifying potassium channel KCNH2 (Homo sapiens, UniProt Q12809); experiment: Inhibition of human ERG by patch clamp assay
Cytochrome P450 2D6 = Cytochrome P450 2D6 (Homo sapiens, UniProt P10635); experiment: Inhibition of CYP2D6 (unknown origin); type: ADME
[2] = target: Melanin-concentrating hormone receptor 1 (Rattus norvegicus, UniProt P97639); experiment: Binding affinity to rat MCH-R1
Chain of Melanin-concentrating hormone receptor 1 (Rattus norvegicus, UniProt P97639) (P97639 whole entry): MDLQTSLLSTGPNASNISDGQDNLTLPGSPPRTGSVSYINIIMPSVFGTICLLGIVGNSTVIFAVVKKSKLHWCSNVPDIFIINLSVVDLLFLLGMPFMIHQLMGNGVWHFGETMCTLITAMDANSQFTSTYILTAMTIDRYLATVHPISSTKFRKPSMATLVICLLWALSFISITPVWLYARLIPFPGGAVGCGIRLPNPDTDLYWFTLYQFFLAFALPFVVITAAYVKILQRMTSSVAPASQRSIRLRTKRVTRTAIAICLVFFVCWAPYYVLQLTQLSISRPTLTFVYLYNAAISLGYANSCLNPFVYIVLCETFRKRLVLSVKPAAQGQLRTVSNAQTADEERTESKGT

[3] = Total mean residence time in iv dosed cynomolgus monkey; type: ADME, organism-based, Macaca fascicularis; details: in vivo
[4] = Volume of distribution at steady state in rat; type: ADME, organism-based; details: in vivo, read-out: Vdss
[5] = target: Histamine H3 receptor (Homo sapiens) (UniProt Q9Y5N1); experiment: Binding affinity to histamine H3 receptor (unknown origin) at 10 uM by radioligand binding assay
Rattus norvegicus [6] = species: Rattus norvegicus; experiment: Clearance in rat relative to hepatic blood flow; type: ADME, organism-based, Liver; details: in vivo
[7] = Plasma protein binding in dog; type: ADME, cell-free, Canis lupus familiaris; details: read-out: PPB (converted)
[8] = Metabolic stability in rat hepatocytes relative to hepatic blood flow; type: ADME, cell-based, Hepatocyte; details: read-out: Stability
[9] = target: T1, Melanin-concentrating hormone receptor 1 (Homo sapiens, UniProt Q99705); experiment: Binding affinity to human MCH-R1 expressed in CHO/Galpha16 cells; type: cell-based
T1 sequence (Q99705 whole entry): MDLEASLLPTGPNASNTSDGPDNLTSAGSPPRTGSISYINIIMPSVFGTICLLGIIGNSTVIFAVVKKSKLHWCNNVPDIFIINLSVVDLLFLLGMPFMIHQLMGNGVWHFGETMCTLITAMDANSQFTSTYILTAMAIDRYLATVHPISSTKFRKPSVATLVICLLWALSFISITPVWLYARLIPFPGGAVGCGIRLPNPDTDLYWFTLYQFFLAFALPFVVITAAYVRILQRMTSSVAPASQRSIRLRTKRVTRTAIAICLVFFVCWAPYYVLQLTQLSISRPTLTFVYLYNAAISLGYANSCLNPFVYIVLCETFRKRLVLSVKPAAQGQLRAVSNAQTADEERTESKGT

[10] = Oral bioavailability in rat; type: ADME, organism-based; details: in vivo
[11] = Volume of distribution at steady state in cynomolgus monkey; type: ADME, organism-based, Macaca fascicularis; details: in vivo, read-out: Vdss
[12] = Volume of distribution at steady state in dog; type: ADME, organism-based, Canis lupus familiaris; details: in vivo, read-out: Vdss
[13] = Total mean residence time in iv dosed dog; type: ADME, organism-based, Canis lupus familiaris; details: in vivo
[14] = Metabolic stability in human hepatocytes relative to hepatic blood flow; type: ADME, cell-based, Hepatocyte; details: read-out: Stability
Rattus norvegicus [15] = experiment: Toxicity in diet-induced obese Wistar rat model at 6 to 10 mg/kg, po bid after 4 weeks; type: organism-based; details: in vivo, 672 h
Cytochrome P450 2C19 = Cytochrome P450 2C19 (Homo sapiens, UniProt P33261); experiment: Inhibition of CYP2C19 (unknown origin); type: ADME
Chain of Cytochrome P450 2C19 (P33261 whole entry): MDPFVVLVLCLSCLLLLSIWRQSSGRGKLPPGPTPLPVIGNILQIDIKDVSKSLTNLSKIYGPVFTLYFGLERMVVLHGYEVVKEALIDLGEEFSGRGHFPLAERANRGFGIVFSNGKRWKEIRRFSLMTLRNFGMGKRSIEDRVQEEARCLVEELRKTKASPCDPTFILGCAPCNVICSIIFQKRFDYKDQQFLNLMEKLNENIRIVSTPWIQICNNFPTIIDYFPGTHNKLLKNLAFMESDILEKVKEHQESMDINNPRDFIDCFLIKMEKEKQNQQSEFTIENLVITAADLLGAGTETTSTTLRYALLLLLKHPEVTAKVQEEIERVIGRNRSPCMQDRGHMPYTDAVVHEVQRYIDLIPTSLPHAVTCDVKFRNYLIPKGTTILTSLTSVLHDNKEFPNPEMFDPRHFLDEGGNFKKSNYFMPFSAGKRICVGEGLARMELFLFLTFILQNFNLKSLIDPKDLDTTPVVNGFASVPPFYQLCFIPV

[16] = Mean residence time in iv dosed dog; type: ADME, organism-based, Canis lupus familiaris; details: in vivo
[17] = Intrinsic clearance in human hepatocytes assessed per 10^6 cells; type: ADME, cell-based, Hepatocyte; details: read-out: CLH
[18] = Mean residence time in iv dosed cynomolgus monkey; type: ADME, organism-based, Macaca fascicularis; details: in vivo
Rattus norvegicus [19] = experiment: Antiobesity activity in diet-induced obese Wistar rat model assessed as reduction of body weight at 3 mg/kg, po bid after 4 weeks; type: functional; design: scale not given: the % may be the effect or the level left
Cynomolgus monkey [20] = experiment: Clearance in cynomolgus monkey relative to hepatic blood flow; type: ADME, organism-based, Macaca fascicularis, Liver; details: in vivo
Salmonella typhimurium = experiment: Genotoxicity in Salmonella typhimurium by Ames test; type: toxicity, organism-based; details: salmonella enterica subsp. enterica serovar typhimurium
[21] = Plasma protein binding in cynomolgus monkey; type: ADME, cell-free, Macaca fascicularis; details: read-out: PPB (converted)
Cynomolgus monkey [22] = experiment: Cardiotoxicity in conscious cynomolgus monkey assessed as decrease in heart rate at 30 mg/kg, po; type: toxicity, organism-based, Macaca fascicularis; details: in vivo
Canis familiaris = species: Canis familiaris; experiment: Clearance in dog relative to hepatic blood flow; type: ADME, organism-based, Canis lupus familiaris, Liver; details: in vivo
Cynomolgus monkey [23] = experiment: Cardiotoxicity in conscious cynomolgus monkey assessed as left ventricular pressure at 3 to 30 mg/kg, po; type: toxicity, organism-based, Macaca fascicularis, Heart left ventricle; details: in vivo
Cynomolgus monkey [24] = experiment: Cardiotoxicity in conscious cynomolgus monkey assessed as myocardial contraction at 3 to 30 mg/kg, po; type: toxicity, organism-based, Macaca fascicularis, Myocardium; details: in vivo
[25] = Mean residence time in iv dosed rat; type: ADME, organism-based; details: in vivo
[26] = Distribution coefficient, log D of the compound; type: physicochemical; details: octanol/water
[27] = Binding affinity to dog MCH-R1; design: species or system Canis lupus familiaris
[28] = target: T2, Nuclear receptor subfamily 1 group I member 2 (Homo sapiens, UniProt O75469); experiment: Activation of PXR (unknown origin) at 10 uM relative to rifampicin; type: ADME
T2 sequence (O75469 whole entry): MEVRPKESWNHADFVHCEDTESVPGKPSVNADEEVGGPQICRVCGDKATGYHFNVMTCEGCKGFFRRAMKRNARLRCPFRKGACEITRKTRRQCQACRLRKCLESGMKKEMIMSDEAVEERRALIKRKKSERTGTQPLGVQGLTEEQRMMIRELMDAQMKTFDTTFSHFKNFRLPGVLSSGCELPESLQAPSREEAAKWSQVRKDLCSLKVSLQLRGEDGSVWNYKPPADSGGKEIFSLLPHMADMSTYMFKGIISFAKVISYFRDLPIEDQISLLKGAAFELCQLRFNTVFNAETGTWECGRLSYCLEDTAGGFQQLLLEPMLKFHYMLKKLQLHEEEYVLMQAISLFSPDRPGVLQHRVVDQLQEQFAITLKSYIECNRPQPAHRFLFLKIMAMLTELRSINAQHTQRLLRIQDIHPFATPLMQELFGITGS

U-937 [29] = experiment: Cytotoxicity against human U937 cells; type: cell-based
[30] = Aqueous solubility of the compound at pH 6.8; type: physicochemical
[31] = Plasma protein binding in human; type: ADME, cell-free; details: read-out: PPB (converted)
CYP3A4 = CYP3A4 (Homo sapiens, UniProt P08684); experiment: Time dependent inhibition of CYP3A4 (unknown origin) at 25 uM after 30 mins; type: ADME
Chain of CYP3A4 (P08684 whole entry): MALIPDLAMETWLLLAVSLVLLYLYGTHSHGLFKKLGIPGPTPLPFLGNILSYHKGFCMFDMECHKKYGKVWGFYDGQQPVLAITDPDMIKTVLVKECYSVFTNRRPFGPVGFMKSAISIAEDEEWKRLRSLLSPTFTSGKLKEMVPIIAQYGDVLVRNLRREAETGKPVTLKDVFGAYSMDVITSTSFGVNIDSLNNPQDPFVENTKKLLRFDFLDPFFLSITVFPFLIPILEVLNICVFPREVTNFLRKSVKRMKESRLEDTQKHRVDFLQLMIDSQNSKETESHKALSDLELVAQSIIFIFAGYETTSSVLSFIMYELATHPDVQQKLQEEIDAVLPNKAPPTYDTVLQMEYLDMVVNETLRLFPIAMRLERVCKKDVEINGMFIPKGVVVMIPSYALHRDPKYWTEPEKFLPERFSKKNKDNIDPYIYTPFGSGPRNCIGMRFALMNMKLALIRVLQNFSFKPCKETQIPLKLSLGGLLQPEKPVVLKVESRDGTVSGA

U-937 [32] = experiment: Toxicity in human U937 cells assessed as first effect concentration for phospholipidosis by nile red uptake assay; type: cell-based
[33] = Oral bioavailability in cynomolgus monkey; type: ADME, organism-based, Macaca fascicularis; details: in vivo
Cytochrome P450 2C8 = target: T3, Cytochrome P450 2C8 (Homo sapiens, UniProt P10632); experiment: Inhibition of CYP2C8 (unknown origin); type: ADME
T3 sequence (P10632 whole entry): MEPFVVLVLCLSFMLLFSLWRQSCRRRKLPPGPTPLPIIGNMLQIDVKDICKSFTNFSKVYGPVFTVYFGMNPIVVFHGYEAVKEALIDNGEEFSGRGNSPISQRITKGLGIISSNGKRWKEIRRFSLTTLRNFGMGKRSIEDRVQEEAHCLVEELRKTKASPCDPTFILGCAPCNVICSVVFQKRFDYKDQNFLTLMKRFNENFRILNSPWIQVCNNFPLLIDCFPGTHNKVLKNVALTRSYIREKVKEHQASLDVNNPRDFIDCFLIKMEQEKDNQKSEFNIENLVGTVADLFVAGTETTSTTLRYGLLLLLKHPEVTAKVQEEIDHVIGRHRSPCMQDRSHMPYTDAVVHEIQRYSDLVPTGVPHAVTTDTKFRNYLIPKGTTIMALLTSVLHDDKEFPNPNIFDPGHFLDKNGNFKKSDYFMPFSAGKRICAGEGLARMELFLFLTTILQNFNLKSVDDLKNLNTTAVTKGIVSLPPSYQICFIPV

[34] = Oral bioavailability in dog; type: ADME, organism-based, Canis lupus familiaris; details: in vivo
U-937 [35] = experiment: Toxicity in human U937 cells assessed as phospholipidosis at 100 uM by nile red uptake assay; type: cell-based; details: u-937, 100 µM
[36] = Plasma protein binding in rat; type: ADME, cell-free; details: read-out: PPB (converted)
[37] = Aqueous solubility of the compound at pH 2.2; type: physicochemical
Rattus norvegicus [38] = experiment: Antiobesity activity in diet-induced obese Wistar rat model assessed as reduction of body weight at 10 mg/kg, po bid after 4 weeks; type: functional; design: scale not given: the % may be the effect or the level left
Rattus norvegicus [39] = experiment: Antiobesity activity in diet-induced obese Wistar rat model assessed as reduction of body weight at 6 mg/kg, po bid after 4 weeks; type: functional; design: scale not given: the % may be the effect or the level left
[40] = Metabolic stability in cynomolgus monkey hepatocytes relative to hepatic blood flow; type: ADME, cell-based, Macaca fascicularis, Hepatocyte; details: read-out: Stability
[41] = Aqueous solubility of the compound at pH 4.5; type: physicochemical
hERG (KCNH2) = hERG (KCNH2) (Homo sapiens, UniProt Q12809); experiment: Inhibition of human ERG at 10 uM by patch clamp assay
Chain of hERG (KCNH2) (Q12809 whole entry): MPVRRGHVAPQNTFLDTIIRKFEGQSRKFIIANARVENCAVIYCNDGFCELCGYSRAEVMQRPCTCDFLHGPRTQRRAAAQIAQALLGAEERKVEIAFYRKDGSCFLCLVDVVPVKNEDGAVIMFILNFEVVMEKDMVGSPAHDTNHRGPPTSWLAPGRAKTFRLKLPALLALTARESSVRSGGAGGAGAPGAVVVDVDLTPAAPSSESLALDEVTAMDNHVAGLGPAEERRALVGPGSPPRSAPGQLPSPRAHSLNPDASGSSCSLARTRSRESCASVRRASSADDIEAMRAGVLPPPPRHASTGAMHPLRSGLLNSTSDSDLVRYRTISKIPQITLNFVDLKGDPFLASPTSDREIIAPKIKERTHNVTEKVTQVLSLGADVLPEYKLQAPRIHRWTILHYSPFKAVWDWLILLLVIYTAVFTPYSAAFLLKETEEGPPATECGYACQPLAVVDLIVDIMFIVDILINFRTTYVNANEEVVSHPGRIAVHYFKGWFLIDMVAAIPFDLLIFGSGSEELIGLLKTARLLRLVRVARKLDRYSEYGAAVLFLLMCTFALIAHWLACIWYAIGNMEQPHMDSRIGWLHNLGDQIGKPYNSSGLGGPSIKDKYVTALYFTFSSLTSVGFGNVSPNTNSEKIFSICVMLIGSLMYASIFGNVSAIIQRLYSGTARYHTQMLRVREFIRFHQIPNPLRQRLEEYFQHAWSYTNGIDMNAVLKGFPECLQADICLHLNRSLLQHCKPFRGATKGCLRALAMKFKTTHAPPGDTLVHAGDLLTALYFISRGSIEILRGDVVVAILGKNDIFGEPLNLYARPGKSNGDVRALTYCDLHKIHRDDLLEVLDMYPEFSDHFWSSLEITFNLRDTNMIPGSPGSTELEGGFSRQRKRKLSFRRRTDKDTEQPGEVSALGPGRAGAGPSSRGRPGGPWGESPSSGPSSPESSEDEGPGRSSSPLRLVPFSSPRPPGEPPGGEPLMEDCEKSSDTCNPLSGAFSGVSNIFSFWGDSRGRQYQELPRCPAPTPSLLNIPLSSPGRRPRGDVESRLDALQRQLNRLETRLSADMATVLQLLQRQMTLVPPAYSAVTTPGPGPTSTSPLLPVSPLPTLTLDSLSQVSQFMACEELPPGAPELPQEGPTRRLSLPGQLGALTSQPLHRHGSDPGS

Cytochrome P450 2C9 = Cytochrome P450 2C9 (Homo sapiens, UniProt P11712); experiment: Inhibition of CYP2C9 (unknown origin); type: ADME
Chain of Cytochrome P450 2C9 (P11712 whole entry): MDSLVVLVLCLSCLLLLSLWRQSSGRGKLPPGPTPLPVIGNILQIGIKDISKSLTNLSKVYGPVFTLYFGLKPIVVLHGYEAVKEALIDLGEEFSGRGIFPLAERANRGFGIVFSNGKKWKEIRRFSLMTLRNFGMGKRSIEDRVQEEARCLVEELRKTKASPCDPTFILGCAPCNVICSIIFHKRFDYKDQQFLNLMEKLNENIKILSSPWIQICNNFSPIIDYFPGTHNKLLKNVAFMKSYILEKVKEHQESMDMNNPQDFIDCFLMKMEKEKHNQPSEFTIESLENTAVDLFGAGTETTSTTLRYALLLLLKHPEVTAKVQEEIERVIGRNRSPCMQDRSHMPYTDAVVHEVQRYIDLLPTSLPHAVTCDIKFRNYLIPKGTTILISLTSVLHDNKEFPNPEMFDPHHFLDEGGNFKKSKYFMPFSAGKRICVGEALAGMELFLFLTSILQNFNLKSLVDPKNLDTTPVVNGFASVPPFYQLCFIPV

Cynomolgus monkey [42] = experiment: Cardiotoxicity in conscious cynomolgus monkey assessed as systolic and diastolic blood pressure at 3 to 30 mg/kg, po; type: toxicity, organism-based, Macaca fascicularis; details: in vivo
[43] = Efflux ratio in human Caco2 cells at 10 uM; type: ADME, cell-based; details: Caco-2
[44] = Total mean residence time in iv dosed rat; type: ADME, organism-based; details: in vivo
Cytochrome P450 3A4 = Cytochrome P450 3A4 (Homo sapiens, UniProt P08684); experiment: Inhibition of CYP3A4 (unknown origin); type: ADME
Chain of Cytochrome P450 3A4 (P08684 whole entry): as the sequence (P08684 whole entry) above

[45] = Lipophilicity, log P of the compound by HPLC analysis; type: physicochemical
[46] = target: T1, Melanin-concentrating hormone receptor 1; experiment: Displacement of [125I]-MCH from human MCH-R1 expressed in CHO/Galpha16 cells after 60 mins by scintillation counting; type: cell-based
[47] = Apparent permeability from apical to basolateral side in human Caco2 cells at 10 uM; type: ADME, cell-based; details: Caco-2
[48] = Half life in rat liver microsomes; type: ADME
[49] = Aqueous solubility of the compound at pH 7.4; type: physicochemical
[50] = Dissociation constant, pKa of the compound; type: physicochemical

Chain of Voltage-gated inwardly rectifying potassium channel KCNH2 (Q12809 whole entry): as the sequence (Q12809 whole entry) above
Chain of Cytochrome P450 2D6 (P10635 whole entry): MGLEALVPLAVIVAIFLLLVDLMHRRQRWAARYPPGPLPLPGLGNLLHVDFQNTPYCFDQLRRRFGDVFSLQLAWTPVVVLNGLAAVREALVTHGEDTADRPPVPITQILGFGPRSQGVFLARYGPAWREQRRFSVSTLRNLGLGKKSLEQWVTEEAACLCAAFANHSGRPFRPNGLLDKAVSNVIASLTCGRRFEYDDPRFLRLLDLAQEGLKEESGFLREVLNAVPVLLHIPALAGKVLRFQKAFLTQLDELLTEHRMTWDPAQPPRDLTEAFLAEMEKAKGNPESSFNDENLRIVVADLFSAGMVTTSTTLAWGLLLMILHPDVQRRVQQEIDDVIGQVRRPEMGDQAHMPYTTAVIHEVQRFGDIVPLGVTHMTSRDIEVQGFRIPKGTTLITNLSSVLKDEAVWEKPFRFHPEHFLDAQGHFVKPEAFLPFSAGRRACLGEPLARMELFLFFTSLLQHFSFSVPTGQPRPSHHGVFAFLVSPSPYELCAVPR

COc1ccc(COc2cnn(CC(=O)c3ccc(CN(C)C)cc3C)c(=O)c2)nc1
IC50 [1]: 16 µM | IC50 (Cytochrome P450 2D6): > 50 µM | IC50 [2]: 0.018 µM | MRT [3]: 2.2 h | Vd [4]: 3.3 L/kg | Activity [5]: 78% | CL (Rattus norvegicus [6]): 164% | fraction unbound [7]: 0.2 | hepatic extraction ratio [8]: 0.78 | Ki [9]: 0.014 µM | bioavailability [10]: 53% | Vd [11]: 1.3 L/kg | Vd [12]: 2.9 L/kg | MRT [13]: 2.9 h | hepatic extraction ratio [14]: 0.26 | Activity (Rattus norvegicus [15]): Non-toxic | IC50 (Cytochrome P450 2C19): > 50 µM | MRT [16]: 0.7 h | hepatocyte CLint [17]: 3.3 µL/min/1e6 cells | MRT [18]: 1.2 h | Activity (Rattus norvegicus [19]): 7.7% | CL (Cynomolgus monkey [20]): 40% | Activity (Salmonella typhimurium): Non-toxic | fraction unbound [21]: 0.1 | Activity (Cynomolgus monkey [22]): Non-toxic | CL (Canis familiaris): 229% | Activity (Cynomolgus monkey [23]): Non-toxic | Activity (Cynomolgus monkey [24]): Non-toxic | MRT [25]: 0.5 h | logD [26]: 1.4 | IC50 [27]: 0.023 µM | Activity [28]: 17% | IC50 (U-937 [29]): 506 µM | solubility [30]: > 1000 µg/mL | fraction unbound [31]: 0.07 | inhibition at 0.5 h, 25 µM (CYP3A4): 85% | Activity (U-937 [32]): 200 µM | bioavailability [33]: 44% | IC50 (Cytochrome P450 2C8): > 50 µM | bioavailability [34]: 1.4% | Activity (U-937 [35]): Non-toxic | fraction unbound [36]: 0.1 | solubility [37]: > 1000 µg/mL | Activity (Rattus norvegicus [38]): 10.2% | Activity (Rattus norvegicus [39]): 10.1% | hepatic extraction ratio [40]: 0.43 | solubility [41]: > 1000 µg/mL | inhibition at 10 µM (hERG (KCNH2)): 17% | IC50 (Cytochrome P450 2C9): > 50 µM | Activity (Cynomolgus monkey [42]): Non-toxic | efflux ratio at 10 µM [43]: 1 | MRT [44]: 3.4 h | IC50 (Cytochrome P450 3A4): 18 µM | logP [45]: 2.3 | IC50 [46]: 0.022 µM | Papp A→B at 10 µM [47]: 52 ×10⁻⁶ cm/s | half-life [48]: > 0.75 h | solubility [49]: > 1000 µg/mL | pKa [50]: 2.8
